In patent US20150126465A1, “PROCESS FOR PRODUCING DERIVATIVES OF PYROSTEGIA VENUSTA, DERIVATIVES OF PYROSTEGIA VENUSTA, PHARMACEUTICAL COMPOSITIONS AND ITS USES” (priority 2011, published 2015):
≈ marks a conversion by molar mass, not a printed value. Like-named read-outs stand apart in the source and are kept apart here.

Tested on: Candida krusei USP 2223
Experiment: MIC by microdilution (CLSI M27-A2)
Assay type: cell-based
Conditions: Pichia kudriavzevii, USP2223, read-out: MIC

MIC (Table 12, C. krusei USP 2223, 48 h, 35° C.): 1 µg/mL (≈ 2.4 µM) | MIC (Table 14, C. krusei USP 2223): 4 µg/mL (≈ 9.61 µM)
Structure (SMILES): Clc1ccc(COC(Cn2ccnc2)c2ccc(Cl)cc2Cl)c(Cl)c1 (centres unmarked) [Miconazol]
